How the values were obtained:
[1] = tested on: freshly isolated mouse hepatocytes; assay: CisPt effect on cell viability with or without protectant; assay type: cell-based; conditions: co-administration with CisPt, FIG. 3B
Description: (§1) The enol compounds investigated in this study were gavinol, NAHA, and THA and as a point of comparison, the protective properties of thiol-based compounds, N-acetyl-L-cysteine (NAC) and sodium thiosulfate (STS), were also investigated.

neonatal rat DRG cells = assay: as above; assay type: cell-based; conditions: co-administration with CisPt, FIG. 3A
Description: as §1

osteosarcoma (HOS) = assay: CisPt-induced cancer cell lethality; assay type: cell-based; conditions: for effect on ability of CisPt to kill cancer cells (IC75): co-incubated with graded CisPt, FIG. 5C
mouse = assay: Mouse studies: open field, balance beam, functional observational battery, treadmill; assay type: in vivo; conditions: open field observations, treadmill analysis
glioblastoma (U87 MG) = assay: CisPt-induced cancer cell lethality; assay type: cell-based
[2] = tested on: isolated mouse hepatocytes; assay: Lethality of pre-formed enol-Pt complexes and Pt drugs; conditions: 4 hours exposure
Description: (§2) DRG cells and isolated mouse hepatocytes were then exposed to enol-Pt complexes for 4 hours and the respective changes in lethality were determined.

DRG cells = assay: as above; conditions: 4 hours exposure
Description: as §2

neuroblastoma (SH-SY5) = assay: CisPt-induced cancer cell lethality; assay type: cell-based
[3] = acute animal toxicity; cited from earlier work
[4] = 400-600 mg/kg per day for 60 days; cited from earlier work
[5] = pKa of nucleophilic carbon atoms; assay type: physicochemical
[6] = complexes pre-incubated 30 mins

Compound | protection against CisPt toxicity [1] | protection against CisPt toxicity (neonatal rat DRG cells) | effect on ability of CisPt to kill cancer cells (IC75) (osteosarcoma (HOS)) | toxicity in mouse studies (mouse) | further results
CC(=O)c1c(O)cc(NC(=O)C2CCCC2=O)cc1O (centres unmarked) [gavinol, N-(4-acetyl-3,5-dihydroxyphenyl)-2-oxocyclopentane-1-carboxamide] | substantial cryoprotection | substantial cryoprotection | significantly lowered the respective IC75S | not toxic | –
N.N.O=C([O-])C1(C(=O)[O-])CCC1.[Pt+2] [CarboPt, carboplatin] | – | – | – | – | cancer cell lethality (glioblastoma (U87 MG); FIG. 6A, compared with CisPt): reduced cancer cell lethality; cytotoxicity relative to that caused by CisPt or OxaliPt [2]: intermediate cytotoxicity; cytotoxicity (lethality) [2, 6]: substantial concentration-dependent DRG and hepatocyte lethality; cytotoxicity relative to that caused by CisPt or OxaliPt (DRG cells): intermediate cytotoxicity; cytotoxicity (lethality) (DRG cells; [6]): substantial concentration-dependent DRG and hepatocyte lethality; cancer cell lethality (osteosarcoma (HOS); FIG. 6B, compared with CisPt): reduced cancer cell lethality; cancer cell lethality (neuroblastoma (SH-SY5); FIG. 6C, compared with CisPt): reduced cancer cell lethality
CC(=O)C1CCCC1=O (centres unmarked) [2-ACP, 2-acetylcyclopentanone] | – | – | – | not toxic | LD50 [3]: > 800 mg/kg; systemic toxicity [4]: low incidence of systemic toxicity
CC(=O)N[C@@H](CS)C(=O)O [NAC, N-acetyl-L-cysteine, reference compound] | only modest protection | only modest protection | – | – | –
O=S([O-])([O-])=S.[Na+].[Na+] [STS, sodium thiosulfate, reference compound] | only modest protection | only modest protection | did not modify CisPt-induced cancer cell toxicity | – | effect on ability of CisPt to kill cancer cells (IC75) (glioblastoma (U87 MG); co-incubated with graded CisPt, FIG. 5B): did not modify CisPt-induced cancer cell toxicity; effect on ability of CisPt to kill cancer cells (IC75) (neuroblastoma (SH-SY5); co-incubated with graded CisPt, FIG. 5A): did not modify CisPt-induced cancer cell toxicity
CC(=O)Nc1cc(O)c(C(C)=O)c(O)c1 [NAHA, 4-N-acetyl-2,6-dihydroxyacetaphenone] | substantial cryoprotection | substantial cryoprotection | significantly lowered the respective IC75S | not toxic | pKa [5]: 7.9
CC(=O)c1c(O)cc(O)cc1O [THA, 2′,4′,6′-trihydroxyacetophenone] | substantial cryoprotection | substantial cryoprotection | – | not toxic | –
